Results on one compound are retold here after publication PMC9983021, “Novel GluN2B-Selective NMDA Receptor Negative Allosteric Modulator Possesses Intrinsic Analgesic Properties and Enhances Analgesia of Morphine in a Rodent Tail Flick Pain Model” (ACS Chemical Neuroscience, 2023).

What all share (assay): Radioligand binding assay (NIMH PDSP)
The target of one assay is H1 (Homo sapiens, UniProt P35367). The following applies: for Ki: secondary screen, binding competition curve. On the procedure: (§1) Compound EU93-108 was also tested for inhibition of binding of probes to a range of GPCRs and other targets (Table 4 and Supporting Table S4). […] EU93-108 produced significant displacement of binding probes for the 5-HT2 receptors and α-1-adrenergic receptors, as well as D3, H1, and σ1 receptors. Concentration–response binding competition curves for these targets were used to determine Ki values (Table 4). Given that the brain concentration of EU93-108 achieved 30 min post i.p. injection is 18 μM (Figure 6), the doses that yield our desired antinociceptive effects may engage some of the receptors listed in Table 4.
(§2) Conventional competition and saturation radioligand binding assays were used to determine the affinities of reference standards and EU93-108. Experiments were carried out by the NIMH Psychoactive Drug Screening Program (PDSP) and were performed as previously described.[123]
(§3) The detailed experimental protocols for the radioligand assays are available on the NIMH PDSP website at https://pdsp.unc.edu/pdspweb/content/UNC-CH%20Protocol%20Book.pdf.
(§4) Receptor Mean % Receptor Mean % Receptor Mean %
(§5) Inhibition Inhibition Inhibition
(§6) Supplemental Table S4. Off-Target Actions of EU93-108: Primary GPCR Screen. Cloned human molecular targets were individually expressed and submitted to molecular target-based screening with initial screens performed at a final concentration of 10 µM in quadruplicate. Complete protocols for the assays have been previously published (Besnard J et al. 2012). Where inhibition greater than 50% was measured, secondary screens were performed wherein Ki values were calculated (see Table 4).

Another assay has as its target 5-HT2B (Homo sapiens, UniProt P41595). On the procedure:
as §1, §2, §3, §4, §5, §6

Another assay concerns the target T1, Alpha2A (α2A) (Homo sapiens, UniProt P08913).
T1 sequence (P08913 1-465): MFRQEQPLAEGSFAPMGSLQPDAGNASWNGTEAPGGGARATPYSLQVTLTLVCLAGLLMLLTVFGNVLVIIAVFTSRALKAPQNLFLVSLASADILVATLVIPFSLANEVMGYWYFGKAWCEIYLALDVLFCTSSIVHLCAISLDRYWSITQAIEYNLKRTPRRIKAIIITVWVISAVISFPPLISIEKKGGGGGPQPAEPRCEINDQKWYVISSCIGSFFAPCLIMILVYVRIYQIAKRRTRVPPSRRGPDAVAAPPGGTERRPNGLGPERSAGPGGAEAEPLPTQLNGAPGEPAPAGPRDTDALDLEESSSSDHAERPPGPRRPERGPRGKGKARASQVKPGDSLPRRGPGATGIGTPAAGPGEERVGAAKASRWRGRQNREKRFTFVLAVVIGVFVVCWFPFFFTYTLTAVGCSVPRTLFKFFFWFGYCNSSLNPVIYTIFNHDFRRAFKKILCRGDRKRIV
On the procedure:
as §1, §2, §3, §4, §5, §6

Another assay addresses T2, Alpha2B (α2B) (Homo sapiens, UniProt P18089).
T2 sequence (P18089 1-450): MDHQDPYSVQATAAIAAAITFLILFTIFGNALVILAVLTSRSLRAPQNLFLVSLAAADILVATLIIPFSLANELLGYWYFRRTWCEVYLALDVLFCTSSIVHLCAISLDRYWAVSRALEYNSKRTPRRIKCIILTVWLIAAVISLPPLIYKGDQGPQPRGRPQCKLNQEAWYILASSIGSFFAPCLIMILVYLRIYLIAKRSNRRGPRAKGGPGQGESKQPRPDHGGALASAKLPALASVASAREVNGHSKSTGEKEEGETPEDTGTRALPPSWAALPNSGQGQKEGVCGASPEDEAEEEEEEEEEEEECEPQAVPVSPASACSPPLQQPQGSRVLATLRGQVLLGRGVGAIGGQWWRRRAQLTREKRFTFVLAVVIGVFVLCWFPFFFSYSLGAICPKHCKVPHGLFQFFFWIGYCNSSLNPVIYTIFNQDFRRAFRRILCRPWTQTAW
On the procedure:
as §1, §2, §3, §4, §5, §6

A further assay concerns the target T3, Alpha2C (α2C) (Homo sapiens, UniProt P18825).
T3 sequence (P18825 1-462): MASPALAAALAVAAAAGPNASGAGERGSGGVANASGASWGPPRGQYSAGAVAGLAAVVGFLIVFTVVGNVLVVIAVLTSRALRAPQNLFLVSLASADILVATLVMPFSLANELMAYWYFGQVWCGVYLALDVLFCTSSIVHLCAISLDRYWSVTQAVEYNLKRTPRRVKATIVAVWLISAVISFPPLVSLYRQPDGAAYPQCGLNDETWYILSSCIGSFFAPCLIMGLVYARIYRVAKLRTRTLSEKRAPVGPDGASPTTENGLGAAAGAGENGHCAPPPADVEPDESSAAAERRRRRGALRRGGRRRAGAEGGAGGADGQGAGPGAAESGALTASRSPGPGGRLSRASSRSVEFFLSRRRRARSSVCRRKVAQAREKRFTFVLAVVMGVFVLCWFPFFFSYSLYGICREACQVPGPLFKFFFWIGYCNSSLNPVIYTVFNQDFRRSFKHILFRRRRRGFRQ
On the procedure:
as §1, §2, §3, §4, §5, §6

A further assay concerns the target T4, Alpha1D (α1D) (Homo sapiens, UniProt P25100).
T4 sequence (P25100 1-572): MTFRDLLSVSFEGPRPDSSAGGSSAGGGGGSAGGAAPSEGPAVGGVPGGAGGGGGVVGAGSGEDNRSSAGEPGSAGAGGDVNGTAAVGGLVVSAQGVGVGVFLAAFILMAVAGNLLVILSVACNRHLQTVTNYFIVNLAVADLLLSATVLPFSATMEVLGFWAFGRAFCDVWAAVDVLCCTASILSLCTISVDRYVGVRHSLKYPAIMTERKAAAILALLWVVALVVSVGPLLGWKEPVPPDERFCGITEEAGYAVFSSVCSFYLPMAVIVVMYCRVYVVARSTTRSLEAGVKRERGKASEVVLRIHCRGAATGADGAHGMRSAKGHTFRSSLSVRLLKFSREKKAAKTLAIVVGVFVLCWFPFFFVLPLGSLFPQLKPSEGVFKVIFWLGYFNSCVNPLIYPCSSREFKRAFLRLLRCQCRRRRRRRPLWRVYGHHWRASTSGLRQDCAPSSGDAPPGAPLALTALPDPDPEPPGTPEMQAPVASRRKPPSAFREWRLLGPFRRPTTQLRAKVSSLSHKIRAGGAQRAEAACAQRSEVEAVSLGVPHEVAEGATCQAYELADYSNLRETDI
On the procedure: as §1, §2, §3, §4, §5, §6

The mark [1] stands for this setting: primary screen, 10 µM, quadruplicate.
The mark [2] stands for this setting: ratio of Ki to the IC50 for EU93-108 (555 nM) at GluN2B.
Where [3] appears, read: secondary screen, binding competition curve.

The inhibition is the drop in the measured response relative to a control, in per cent. One may read the Ki as a measure of affinity in units of concentration, obtained from inhibition or displacement.

Read-outs that look alike come from different tables or passages of the source.

Sequence of H1 (P35367 whole entry): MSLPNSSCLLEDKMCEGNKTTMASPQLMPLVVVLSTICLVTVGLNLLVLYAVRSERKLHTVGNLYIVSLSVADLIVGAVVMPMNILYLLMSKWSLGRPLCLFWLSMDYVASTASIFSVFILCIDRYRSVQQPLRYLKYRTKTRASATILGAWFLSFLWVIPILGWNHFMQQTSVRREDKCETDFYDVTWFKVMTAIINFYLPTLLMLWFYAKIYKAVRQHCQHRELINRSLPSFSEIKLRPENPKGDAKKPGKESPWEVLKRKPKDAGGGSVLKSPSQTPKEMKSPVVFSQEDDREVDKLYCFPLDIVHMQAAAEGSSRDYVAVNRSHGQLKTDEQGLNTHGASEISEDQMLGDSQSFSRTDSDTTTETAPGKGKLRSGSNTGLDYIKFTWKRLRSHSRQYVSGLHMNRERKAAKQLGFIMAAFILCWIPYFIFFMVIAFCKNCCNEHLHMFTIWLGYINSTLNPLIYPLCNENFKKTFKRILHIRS
Sequence of 5-HT2B (P41595 whole entry): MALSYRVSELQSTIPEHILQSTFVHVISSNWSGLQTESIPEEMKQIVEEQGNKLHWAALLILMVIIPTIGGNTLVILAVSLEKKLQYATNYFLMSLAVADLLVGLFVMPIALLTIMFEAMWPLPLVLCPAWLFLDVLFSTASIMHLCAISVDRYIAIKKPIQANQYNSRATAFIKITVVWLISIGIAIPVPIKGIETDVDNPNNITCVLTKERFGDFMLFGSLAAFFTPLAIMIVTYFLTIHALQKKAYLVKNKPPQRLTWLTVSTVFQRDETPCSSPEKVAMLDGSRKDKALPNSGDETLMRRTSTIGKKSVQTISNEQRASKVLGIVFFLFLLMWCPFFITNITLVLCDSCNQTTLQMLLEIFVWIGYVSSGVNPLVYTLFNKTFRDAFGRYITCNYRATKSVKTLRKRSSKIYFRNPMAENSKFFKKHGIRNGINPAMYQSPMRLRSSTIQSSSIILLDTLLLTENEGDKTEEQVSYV

Consider `CS(=O)(=O)Nc1ccc(OC[C@@H](O)CN2CCN(c3ccc(F)c(F)c3)CC2)cc1` [EU93-108, (S)-N-(4-(3-(4-(3,4-Difluorophenyl)piperazin-1-yl)-2-hydroxypropoxy)phenyl)methanesulfonamide], for which the inhibition at 10 µM was determined as 76.9% at H1 (setting [1]); 67.4% on 5-HT2B (setting [1]); 77.7% at Alpha2A (α2A) (setting [1]); 68% at Alpha2B (α2B) (setting [1]); 63% on Alpha2C (α2C) (setting [1]); 76.7% at Alpha1D (α1D) (setting [1]). For the same compound, the “Ki/IC50 of EU93-108” value is recorded as 0.46 on H1 (setting [2]); 1.75 at 5-HT2B (setting [2]); 2.07 at Alpha2A (α2A) (setting [2]); 1.31 at Alpha2B (α2B) (setting [2]); 1.55 on Alpha2C (α2C) (setting [2]); 0.65 at Alpha1D (α1D) (setting [2]). Moreover, the Ki was 254 nM at H1 (read-out: Ki); 257 nM at H1 (read-out: log(Ki) (converted)); 976 nM on 5-HT2B (setting [3]); 1150 nM on Alpha2A (α2A) (setting [3]); 728 nM on Alpha2B (α2B) (setting [3]); 862 nM on Alpha2C (α2C) (setting [3]). On Alpha1D (α1D) (setting [3]), this compound displayed a Ki of 359 nM.
